Like-named read-outs stand apart in the source and are kept apart here.
How the values were obtained:
[1] = test system: V600E-BRAF tumor cells; conditions: cited from earlier work
[2] = test system: Pten^L/L mice; assay: Pharmacological treatment of Pten^L/L mice (preclinical trial, prostate cancer); type: in vivo, mouse; conditions: Pten^L/L mice, RAD001 10 mg/kg daily
Procedure: Pten^loxp/loxp and Pb-cre mice where obtained from Jackson Laboratories and Mouse Models of Human Cancers Consortium (MMHCC), respectively, and maintained in the C57BL/6 background. Mice were maintained under specific pathogen-free conditions, and experiments were performed in compliance with institutional guidelines as approved by the Institutional Animal Care and Use Committee of UCSF.
Weight measurements were taken every 3 days to monitor for toxicity. For the 28-day study, mice were imaged via […] at day 0 and day 28 in a 14-T GE MR scanner (GE Healthcare).
Whole mouse prostates were removed from wild-type and Pten^L/L mice, microdissected, and frozen in liquid nitrogen. Frozen tissues were subsequently manually disassociated using a biopulverizer (Biospec) and additionally processed for protein and mRNA analysis as described above.
Prostates and lymph nodes were dissected from mice within 2 hr of the indicated treatment and fixed in 10% formalin overnight at 4° C. Tissues were subsequently dehydrated in ethanol (Sigma) at room temperature, mounted into paraffin blocks, and sectioned at […] Specimens were de-paraffinized and rehydrated using CitriSolv (Fisher) followed by serial ethanol washes. […] Sections were washed in distilled water followed by TBS washes. The sections were then incubated in 5% goat serum, 1% BSA in TBS for 1 hr at room temperature. Various primary antibodies were used, including those specific for keratin 5 (Covance), cytokeratin 8 (Abcam and Covance), YB1 (Abcam), vimentin (Abcam), MTA1 (Cell signaling), CD44 (BD Pharmingen), and the androgen receptor (Epitomics), which were diluted 1:50-1:500 in blocking solution and incubated on sections overnight at 4° C. Specimens were then washed in TBS and incubated with the appropriate Alexa 488 and 594 labeled secondary (Invitrogen) at 1:500 for 2 hr at room temperature, with the exception of YB1 which was incubated with biotinylated anti-rabbit secondary (Vector) followed by incubation with Alexa 594 labeled Streptavidin (Invitrogen). A final set of washes in TBS was completed at room temperature followed by mounting with DAPI Hardset Mounting Medium (Vector Lab). A Zeiss Spinning Disc confocal (Zeiss, CSU-X1) was used to image the sections at 40×-100×. Individual prostate cells were quantified for mean fluorescence intensity (m.f.i.) using the Axiovision (Zeiss, Release 4.8) densitometric tool.
Mouse lymph nodes were processed as described above and stained for CK8 and androgen receptor. Lymph nodes were imaged using a Zeiss AX10 microscope. Metastases were identified and areas were measured using the Axiovision (Zeiss, Release 4.8) measurement tool.
Immunohistochemistry was performed as described above (see “Immunofluorescence”) with the exception that immediately after antigen […] and TBS washes, specimens were incubated in 3% hydrogen peroxide in TBS followed by TBS washes. The following primary antibodies were used: phospho-AKT^S473 (Cell Signaling), phospho-rpS6^S240/244 (Cell Signaling), phospho-4EBP1^T37/46 (Cell Signaling), phospho-histone H3 (Upstate), and cleaved caspase (Cell Signaling). This was followed by TBS washes and incubation with the appropriate biotinylated secondary antibody (Vector Lab) for 30 min at room temperature. An ABC-HRP Kit (Vector Lab) was used to amplify the signal, followed by a brief incubation in hydrogen peroxide. The protein of interest was detected using DAB (Sigma). Specimens were counterstained with haematoxylin (Thermo Scientific), dehydrated with Citrisolv (Fisher), and mounted with Cytoseal XYL (Vector Lab).
Paraffin-embedded prostate specimens were deparaffinized and rehydrated as described above (see “Immunofluorescence”), stained with haematoxylin (Thermo Scientific), and washed with water. This was followed by a brief incubation in differentiation RTU (VWR) and two washes with water followed by two 70% ethanol washes. […]

[3] = test system: PC3 cells; assay: Ribosome profiling and RNA-seq of PC3 cells (translational efficiency, mRNA abundance); type: cell-based, human;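 also: mRNA is RNA-seq average read density per codon over the coding sequence, translational efficiency is ribosome footprint over RNA-seq density, scaled so the median gene equals 1.0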
Procedure: Given the critical role for mTOR in prostate cancer, PC3 human prostate cancer cells, in which mTOR is constitutively hyperactivated, were used to delineate translationally controlled gene expression networks upon complete or partial mTOR inhibition. Ribosome profiling was optimized to assess quantitatively ribosome occupancy genome-wide in cancer cells.
Cells were subsequently treated with cycloheximide (100 μg ml^−1) and detergent lysis was performed in the dish. The lysate was treated with DNase and clarified, and a sample was taken for RNA-seq analysis. Lysates were subjected to ribosome footprinting by nuclease treatment. Ribosome-protected fragments were purified, and deep sequencing libraries were generated from these fragments, as well as from poly(A) mRNA purified from non-nuclease-treated lysates.
Ribosome footprint and RNA-seq sequencing reads were aligned against a library of transcripts from the UCSC Known Genes database GRCh37/hg19. The first 25 nucleotides of each read were aligned using Bowtie and this initial alignment was then extended to encompass the full fragment-derived portion of the sequencing read while excluding the linker sequence. Read density profiles were then constructed for the canonical transcript of each gene, using only reads with 0 or 1 total mismatches between the read sequence and the reference sequence, comprised of the transcript fragment followed by the linker sequence. Footprint reads were assigned to an A site nucleotide at position +15 to +17 of the alignment, based on the total fragment length; mRNA reads were assigned to the first nucleotide of the alignment. The average read density per codon was then computed for the coding sequence of each transcript, excluding the first 15 and last 5 codons, which can display atypical ribosome accumulation.
Average read density was used as a measure of mRNA abundance (RNA-seq reads) and of protein synthesis (ribosome profiling reads). For most analyses, genes were filtered to require at least 256 reads in the relevant RNA-seq samples. Translational efficiency was computed as the ratio of ribosome footprint read density to RNA-seq read density, scaled to normalize the translational efficiency of the median gene to 1.0 after excluding regulated genes (log2 fold-change ±1.5 after normalizing for the all-gene median). Changes in protein synthesis, mRNA abundance and translational efficiency were similarly computed as the ratio of read densities between different samples, normalized to give the median gene a ratio of 1.0. This normalization corrects for differences in the absolute number of sequencing reads obtained for different libraries.

O=C(NOC[C@H](O)CO)c1ccc(F)c(F)c1Nc1ccc(I)cc1F [PD0325901]
PNAS rna ([1]; gene ALF/GTF2A1L): 2.7 log2 MEKi/DMSO
PNAS rna ([1]; gene ARID5A): −1.7 log2 MEKi/DMSO
PNAS rna ([1]; gene B4GALT6): −1.7 log2 MEKi/DMSO
PNAS rna ([1]; gene BXDC2/BRIX1): −1.2 log2 MEKi/DMSO
PNAS rna ([1]; gene BYSL): −1.2 log2 MEKi/DMSO
PNAS rna ([1]; gene CCND1): −2.2 log2 MEKi/DMSO
PNAS rna ([1]; gene CD3EAP): −1.4 log2 MEKi/DMSO
PNAS rna ([1]; gene CHSY1): −1.3 log2 MEKi/DMSO
PNAS rna ([1]; gene DDX21): −1.1 log2 MEKi/DMSO
PNAS rna ([1]; gene DUSP4): −2.2 log2 MEKi/DMSO
PNAS rna ([1]; gene DUSP6): −2.6 log2 MEKi/DMSO
PNAS rna ([1]; gene EGR1): −2.1 log2 MEKi/DMSO
PNAS rna ([1]; gene ELOVL6): −1.5 log2 MEKi/DMSO
PNAS rna ([1]; gene ETV1): −2.6 log2 MEKi/DMSO
PNAS rna ([1]; gene ETV4): −2.2 log2 MEKi/DMSO
PNAS rna ([1]; gene ETV5): −1.7 log2 MEKi/DMSO
PNAS rna ([1]; gene FLJ10534/TSR1): −1.1 log2 MEKi/DMSO
PNAS rna ([1]; gene FOS): −3.4 log2 MEKi/DMSO
PNAS rna ([1]; gene FOSL1): −4.2 log2 MEKi/DMSO
PNAS rna ([1]; gene GEMIN4): −1.2 log2 MEKi/DMSO
PNAS rna ([1]; gene GNL3): −1.0 log2 MEKi/DMSO
PNAS rna ([1]; gene GPR3): −2.1 log2 MEKi/DMSO
PNAS rna ([1]; gene GTPBP4): −1.1 log2 MEKi/DMSO
PNAS rna ([1]; gene HMGA2): −1.6 log2 MEKi/DMSO
PNAS rna ([1]; gene HSPC111/NOP16): −1.3 log2 MEKi/DMSO
PNAS rna ([1]; gene HYDIN): 2.1 log2 MEKi/DMSO
PNAS rna ([1]; gene IER3): −3.3 log2 MEKi/DMSO
PNAS rna ([1]; gene IL8): −2.5 log2 MEKi/DMSO
PNAS rna ([1]; gene KIR3DL2): 1.7 log2 MEKi/DMSO
PNAS rna ([1]; gene LIF): −3.2 log2 MEKi/DMSO
PNAS rna ([1]; gene LNK/SH2B3): −2.0 log2 MEKi/DMSO
PNAS rna ([1]; gene MAFF): −2.7 log2 MEKi/DMSO
PNAS rna ([1]; gene MAP2K3): −1.5 log2 MEKi/DMSO
PNAS rna ([1]; gene MYC): −2.4 log2 MEKi/DMSO
PNAS rna ([1]; gene PHLDA2): −2.2 log2 MEKi/DMSO
PNAS rna ([1]; gene PLK3): −2.3 log2 MEKi/DMSO
PNAS rna ([1]; gene POLR1C): −1.0 log2 MEKi/DMSO
PNAS rna ([1]; gene POLR3G): −1.0 log2 MEKi/DMSO
PNAS rna ([1]; gene PPAN): −1.2 log2 MEKi/DMSO
PNAS rna ([1]; gene PPAT): −1.1 log2 MEKi/DMSO
PNAS rna ([1]; gene PYCRL): −2.6 log2 MEKi/DMSO
PNAS rna ([1]; gene RRS1): −1.8 log2 MEKi/DMSO
PNAS rna ([1]; gene SEMA6A): 2.1 log2 MEKi/DMSO
PNAS rna ([1]; gene SLC1A5): −1.2 log2 MEKi/DMSO
PNAS rna ([1]; gene SLC4A7): −1.6 log2 MEKi/DMSO
PNAS rna ([1]; gene SPRED2): −1.0 log2 MEKi/DMSO
PNAS rna ([1]; gene SPRY2): −4.0 log2 MEKi/DMSO
PNAS rna ([1]; gene SPRY4): −2.6 log2 MEKi/DMSO
PNAS rna ([1]; gene TNC): −2.5 log2 MEKi/DMSO
PNAS rna ([1]; gene TNFRSF12A): −1.5 log2 MEKi/DMSO
PNAS rna ([1]; gene WDR3): −1.1 log2 MEKi/DMSO
PNAS rna ([1]; gene YRDC): −1.2 log2 MEKi/DMSO

CO[C@H]1C[C@@H]2CC[C@@H](C)[C@@](O)(O2)C(=O)C(=O)N2CCCC[C@H]2C(=O)O[C@H]([C@H](C)C[C@@H]2CC[C@@H](OCCO)[C@H](OC)C2)CC(=O)[C@H](C)/C=C(\C)[C@@H](O)[C@@H](OC)C(=O)[C@H](C)C[C@H](C)/C=C/C=C/C=C/1C [RAD001]
regression of PIN lesions ([2]; 28 days): only partial regression
proliferation (phospho-histone H3) ([2]; ATP site inhibitor of mTOR 1 mg/kg daily): limited decrease

CO[C@H]1C[C@@H]2CC[C@@H](C)[C@@](O)(O2)C(=O)C(=O)N2CCCC[C@H]2C(=O)O[C@H]([C@H](C)C[C@@H]2CC[C@@H](O)[C@H](OC)C2)CC(=O)[C@H](C)/C=C(\C)[C@@H](O)[C@@H](OC)C(=O)[C@H](C)C[C@H](C)/C=C/C=C/C=C/1C [rapamycin]
TrlEff ([3]; gene ACTG1): −0.07
mRNA ([3]; gene ACTG1): 0.02
mRNA ([3]; gene AGRN): 0.01
mRNA ([3]; gene AHCY): 0.20
mRNA ([3]; gene ALKBH7): 0.06
TrlEff ([3]; gene AP2A1): −0.04
mRNA ([3]; gene AP2A1): 0.09
TrlEff ([3]; gene ARD1A): 0.01
mRNA ([3]; gene ARD1A): −0.04
TrlEff ([3]; gene C21orf66): −0.09
mRNA ([3]; gene C21orf66): −0.30
TrlEff ([3]; gene CIRBP): 0.10
mRNA ([3]; gene CLPTM1): 0.07
mRNA ([3]; gene COL6A2): −0.08
mRNA ([3]; gene ECSIT): −0.04
TrlEff ([3]; gene EEF1A2): −0.03
mRNA ([3]; gene EEF1A2): 0.03
TrlEff ([3]; gene EVPL): 0.30
mRNA ([3]; gene EVPL): −0.08
mRNA ([3]; gene FAM128B): 0.06
mRNA ([3]; gene IPO7): 0.20
TrlEff ([3]; gene MTA1): −0.05
mRNA ([3]; gene MTA1): 0.00
mRNA ([3]; gene NCLN): −0.05
TrlEff ([3]; gene PABPC4): −0.80
TrlEff ([3]; gene PACS1): 0.04
mRNA ([3]; gene PACS1): 0.07
TrlEff ([3]; gene PGLS): 0.20
mRNA ([3]; gene PGLS): 0.03
mRNA ([3]; gene PGM1): 0.40
mRNA ([3]; gene RABGGTB): −0.20
mRNA ([3]; gene RPL6): 0.09
TrlEff ([3]; gene RPL8): −0.40
TrlEff ([3]; gene RPL9): −1.00
mRNA ([3]; gene RPL10): 0.09
mRNA ([3]; gene RPL11): 0.09
mRNA ([3]; gene RPL12): 0.07
mRNA ([3]; gene RPL14): 0.07
mRNA ([3]; gene RPL17): 0.05
mRNA ([3]; gene RPL18): 0.08
mRNA ([3]; gene RPL22): 0.08
mRNA ([3]; gene RPL23): 0.09
mRNA ([3]; gene RPL27): 0.05
mRNA ([3]; gene RPL27A): 0.06
TrlEff ([3]; gene RPL29): −0.50
mRNA ([3]; gene RPL29): 0.10
mRNA ([3]; gene RPL31): −0.02
mRNA ([3]; gene RPL36): 0.09
mRNA ([3]; gene RPL37A): 0.08
mRNA ([3]; gene RPL41): 0.04
mRNA ([3]; gene RPS2): 0.07
mRNA ([3]; gene RPS8): 0.09
TrlEff ([3]; gene RPS9): −0.60
mRNA ([3]; gene RPS9): 0.10
mRNA ([3]; gene RPS13): 0.07
TrlEff ([3]; gene RPS14): −0.60
mRNA ([3]; gene RPS14): 0.10
TrlEff ([3]; gene RPS15): 0.03
mRNA ([3]; gene RPS15): −0.01
mRNA ([3]; gene RPS15A): 0.07
TrlEff ([3]; gene RPS21): −0.60
mRNA ([3]; gene RPS21): −0.01
mRNA ([3]; gene RPS25): 0.04
mRNA ([3]; gene RPS27): 0.10
TrlEff ([3]; gene RPS28): −0.80
mRNA ([3]; gene RPS28): 0.01
mRNA ([3]; gene RPS29): −0.01
TrlEff ([3]; gene SLC25A5): −0.30
mRNA ([3]; gene TKT): 0.02
TrlEff ([3]; gene VIM): −0.40

Reference: patent US20190136321A1, “USE OF TRANSLATIONAL PROFILING TO IDENTIFY TARGET MOLECULES FOR THERAPEUTIC TREATMENT” (The Regents of The University of California, priority 2013, published 2019)
